# Measurements as given in US11324706B2, “Composition for inhibiting growth of breast cancer stem cells containing phenylacetaldehyde” (JEJU NATIONAL UNIVERSITY INDUSTRY-ACADEMIC COOPERATION …, priority 2016, dated 2022).
# Columns and labels:
# Type in all cases: cell-based, human
# [1] = system: Nanog, Sox2, Oct4 and CD44 genes; experiment: Real-time PCR of CSC markers in mammospheres; conditions: β-actin internal control
# Procedure: In accordance with the manufacturer's instructions, the level of transcriptome was measured with one step SYBR PrimeScript RT-PCR kit (Takara, Tokyo, Japan) using SYBR green as a double-stranded DNA-specific dye. One-step RT-PCR reaction was conducted in the final volume of 20 μl per reaction containing 1 μg of total RNA, 10 μl of 2× one step SYBR RT-PCR buffer IV, 1 μl of PrimeScript 1 step enzyme mix II, and 10 μM of PCR forward primers and PCR reverse primers for CD44, NANOG, OCT4, SOX2, and β-actin. The forward and reverse primers are as follow: […]
# Relative expression amounts of mRNAs of target genes were calculated using a comparative CT method. At least three independent PCR procedures were conducted in accordance with statistical analysis. PCR products were normalized with β-actin genes, as an internal control.
# [2] = system: Caspase 3/7 activity in MDA-MB-231 cells; experiment: Caspase-3/7 analysis (Caspase-Glo 3/7 kit); conditions: MDA-MB-231, 24 hours
# Procedure: (FIGS. 1D, E and F) show effects of PAA on apoptosis of breast cancer cells. MDA-MB-231 cells were treated with PAA for 24 hours, and apoptotic cells were analyzed by FACS using an Annexin V-PI staining kit. Caspase 3/7 activity in MDA-MB-231 cells was analyzed using a Caspase-Gloss 3/7 kit. By fluorescent staining, apoptotic cells were analyzed and nuclei thereof were stained with Hoechst 33258 in breast cancers (magnified, 200×) (FIG. 1);
# Cancer cells were treated with different concentrations of PAA for 24 hours. Caspase-3/7 activity was analyzed in accordance with the manufacturer's instructions regarding a Caspase-Glo 3/7 kit (Promega, Wis., USA). 100 μl of a Caspase-Glo 3/7 reagent was added to a 96-well for culturing cancer cells. The plate was covered with a plate sealer and cultured at room temperature for one hour, and Caspase-3/7 activity was measured using a plate-reading luminometer, GloMax® Explorer (Promega, Wis., USA).
# [3] = system: ALDH-positive cell populations of MDA-MB-231 cells; experiment: ALDEFLUOR assay; conditions: MDA-MB-231, PAA 0.1 mM
# Procedure: MDA-MB-231 cells were treated with PAA (0.1 mM) or DMSO, and then subjected to ALDEFLUOR assay and FACS analysis. A top panel represents, as a negative control group, an ALDH-positive cell treated with an ALDH inhibitor, DEAB, and a bottom panel represents an ALDH-positive cell not treated with DEAB. An ALDH-positive population was represented by a box;
# An ALDEFLUOR assay system provides a novel approach regarding identification, evaluation and separation of CSCs based on activity of aldehyde dehydrogenase (ALDH). BODIPY-aminoacetaldehyde was added as an active reagent to breast cancer cells and converted into fluorescent BODIPY-aminoacetate by aldehyde dehydrogenase (ALDH). An ALDH inhibitor, i.e., diethylaminobenzaldehyde (DEAB), was used as a negative control group. MCF-7 cells were treated with 200 μM of PAA for 24 hours, and the rate of ALDH-positive cells was analyzed by ALDEFLUOR assay. ALDH positive and negative cells were classified by flow cytometry (Accuri C6, BD, San Diego, Calif., USA).
smiles,measurement,setting,value
"O=CCc1ccccc1 [PAA, phenylacetaldehyde]","expression of self-renewal genes such as Nanog, Sox2, Oct4, and CD44",[1],reduced
same,activity of caspase 3/7,[2],concentration-dependently induced
same,proportion of ALDH-positive breast cancer cells,[3],0.1%
